Measured values taken from patent US10969396B2, “In vitro method, use of an agent and collection device for the inhibition of coagulation in blood” (priority 2013, dated 2021).
Structures can show the parent of a compound that is named as a salt.

System: activated partial thromboplastin time (APTT)
Assay: activated partial thromboplastin time (APTT) determination
Parameters: species or system human
Conditions: Example 1, plasma, N 48
Method: Tetrahydrofuran-2,3,4,5-tetracarboxylic acid (THTCA) was from TCI, Germany. Pristine blood collection tubes, i.e. tubes as originally provided not containing or respectively not filled or coated with additive, were from KABE Labortechnik GmbH, Germany, denoted KABEVETTE (GR).
Blood was collected from the antecubital vein from volunteers who had previously given their informed consent. […] Tubes were filled with blood completely to the mark (4.9 mL), and for tubes containing anticoagulant the blood was mixed well with the respective anticoagulant by inverting the tubes 4 times immediately after blood collection. Serum samples were treated according to the protocol of the manufacturer and used for biochemical analysis. […] Potassium EDTA plasma was also used for biochemical determinations.
The analyses of metabolites, minerals, and enzymes were performed using the automated analyzers cobas 6000 C and 6000 E. Haemostasis tests and haematologic parameters were measured by STA-R (Diagnostica Stago) analyzer and LH 780 analyzer (Beckman Coulter) respectively.

SMILES | APTT Mean | APTT Mean (listed as GR 15, monohydrate)
O=C(O)CC(O)(CC(=O)O)C(=O)O [citrate (BD), sodium citrate] | 29.71 s | –
O=C(O)CC(O)(CC(=O)O)C(=O)O [CA, Citric acid monohydrate] | – | 29.94 s
